Key:
mycobacterium species = conditions: 1 to 100 mg once or twice weekly; cited from earlier work
[1] = Clinical trial: pharmacokinetics of rifalazil in plasma after single oral doses; conditions: for AUC / CL/F / Cmax / half-life: male, human, in vivo, po; for half-life / K10 / K12 / K21 / V1/F / Vdβ/F: males
[2] = cited from earlier work

## CO[C@H]1/C=C/O[C@@]2(C)Oc3c(C)c(O)c4c(=O)c(c5oc6cc(N7CCN(CC(C)C)CC7)cc(O)c6nc-5c4c3C2=O)NC(=O)/C(C)=C\C=C\[C@H](C)[C@H](O)[C@@H](C)[C@@H](O)[C@@H](C)[C@H](OC(C)=O)[C@@H]1C [rifalazil, Rifalazil]
Mycobacterium species
  efficacy against mycobacterium species: efficacious
[1]; 2.5 mg
  AUC: 185 ng·h/mL
  CL/F: 3 mL/min/kg
  Cmax: 7.9 ng/mL
[1]; 2.5 mg, Absorption t½, single 2.5 mg oral dose
  half-life: 0.67 h
[1]; 2.5 mg, Distribution t½, single 2.5 mg oral dose
  half-life: 7.3 h
[1]; 2.5 mg, Elimination t½, single 2.5 mg oral dose
  half-life: 139 h
[1]; 50 mg
  AUC: 1350 ng·h/mL
  CL/F: 8.17 mL/min/kg
  Cmax: 57.3 ng/mL
[1]; 50 mg, Absorption t½, single 50 mg oral dose
  half-life: 0.5 h
[1]; 50 mg, Distribution t½, single 50 mg oral dose
  half-life: 11.6 h
[1]; 50 mg, Elimination t½, single 50 mg oral dose
  half-life: 116 h
[1]; single 2.5 mg oral dose
  K10: 0.045 h⁻¹
  K12: 0.044 h⁻¹
  K21: 0.011 h⁻¹
  V1/F: 4.08 L/kg
  Vdβ/F: 36.0 L/kg
[1]; single 50 mg oral dose
  K10: 0.039 h⁻¹
  K12: 0.018 h⁻¹
  K21: 0.009 h⁻¹
  V1/F: 12.7 L/kg
  Vdβ/F: 82.4 L/kg
[2]; 1 to 100 mg once or twice weekly
  incidence of adverse reactions (headaches, fevers, flu-like symptoms): reduced, but did not eliminate
[2]; clinical trials, daily administration, 10 mg per day to 10 g per day
  adverse reactions: many adverse reactions occurred

Source: patent US8097607B2, “Low dose rifalazil compositions” (priority 2002, dated 2012)
